Assay [1] concerns the target Glycogen synthase kinase-3 beta (Homo sapiens, UniProt P49841). The assay is described as follows: TR-FRET Assay. The gist of the method:
(§1)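 Compound was preincubated 30 min in assay buffer before the kinase reaction, which was quenched with EDTA. Phosphorylation was detected by TR-FRET after adding a solution of 40 nM streptavidin-d2 and 2 nM Tb-labelled anti-pSer641 antibody.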
(Time-resolved FRET reads energy transfer from a long-lived donor to a nearby acceptor.)

The target in assay [2] is Glycogen synthase kinase-3 alpha (Homo sapiens, UniProt P49840). As to the kind of experiment: TR-FRET Assay. An outline of the steps:
as §1

pIC50: −log10 of the molar value. Where “and” joins values, the source holds several entries; their conditions need not be identical. Identical values can stand only once.

Sequence of Glycogen synthase kinase-3 alpha (P49840 whole entry): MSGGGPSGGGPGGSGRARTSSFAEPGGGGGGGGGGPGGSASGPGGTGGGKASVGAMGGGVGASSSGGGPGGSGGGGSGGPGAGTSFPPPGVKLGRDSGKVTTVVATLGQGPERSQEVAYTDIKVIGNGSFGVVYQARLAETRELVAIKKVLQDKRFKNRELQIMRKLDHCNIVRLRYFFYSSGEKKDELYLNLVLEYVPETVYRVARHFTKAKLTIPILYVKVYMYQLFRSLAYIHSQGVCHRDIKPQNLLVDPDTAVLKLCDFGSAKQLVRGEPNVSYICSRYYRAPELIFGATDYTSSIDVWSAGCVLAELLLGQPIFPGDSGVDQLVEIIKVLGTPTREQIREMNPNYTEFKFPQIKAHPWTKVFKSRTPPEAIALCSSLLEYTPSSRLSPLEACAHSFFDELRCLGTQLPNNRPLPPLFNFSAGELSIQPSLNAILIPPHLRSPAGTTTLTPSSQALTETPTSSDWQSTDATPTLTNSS
Sequence of Glycogen synthase kinase-3 beta (P49841 whole entry): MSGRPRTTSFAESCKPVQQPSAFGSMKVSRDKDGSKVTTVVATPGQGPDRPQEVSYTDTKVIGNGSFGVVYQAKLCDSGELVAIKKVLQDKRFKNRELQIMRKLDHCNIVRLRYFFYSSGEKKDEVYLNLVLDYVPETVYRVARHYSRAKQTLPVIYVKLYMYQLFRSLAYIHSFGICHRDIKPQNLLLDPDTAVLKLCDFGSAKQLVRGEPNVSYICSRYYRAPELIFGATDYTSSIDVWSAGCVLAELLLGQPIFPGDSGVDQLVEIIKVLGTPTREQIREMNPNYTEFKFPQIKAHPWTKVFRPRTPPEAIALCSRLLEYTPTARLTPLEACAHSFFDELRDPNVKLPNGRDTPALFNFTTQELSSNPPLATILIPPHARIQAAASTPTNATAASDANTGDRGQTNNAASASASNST

As usually defined, the pIC50 is the negative decadic logarithm of the IC50, by convention in mol/L. A higher pIC50 goes with a small IC50. Regarding `CCC1(c2cccc(Br)c2)C2=CN=NC2NC2=C1C(=O)NC(C)C2` (stereo not drawn) [US20250313563, Compound 913225], the pIC50 in assay [1] was 5.30 to 6.00; in assay [2] it was 6.00 to 7.00.
On to `CC[C@@]1(c2ccccc2)C2=C(CC(C)(C)CC2=O)NC2N=NC(Br)=C21` (stereo partly drawn) [US20250313563, Compound 792340], for which the pIC50 was > 7.00 and 6.00 to 7.00 in assay [1]; > 7.00 and 6.00 to 7.00 in assay [2].
As to `CCC1(c2cccc(N(C)c3nccn3C)c2)C2=CN=NC2NC2=C1C(=O)CC(C)(C)C2` (stereo not drawn) [US20250313563, Compound 885402], the pIC50 in assay [1] is 5.30 to 6.00; in assay [2], 6.00 to 7.00.
Regarding `CC[C@]1(c2cccc(C3=C4CC=CC(Cl)=C4N=CC3)c2)C2=CN=NC2NC2=C1C(=O)NC(C)(C)C2` (stereo partly drawn) [US20250313563, Compound 948650], the pIC50 in assay [1] and in assay [2] was < 5.30 in each case.
In the case of `COc1cccc(C2(C)C3=C(N=NC3)NC3=C2C(=O)CC(C)(C)C3)c1` (stereo not drawn) [US20250313563, Compound 792342], the pIC50 in assay [1] and in assay [2] was 6.00 to 7.00 each time.
Turning to `CC[C@@]1(c2cccc(-c3ccnc(C)c3)c2)C2=CN=NC2NC2=C1C(=O)NC(C)(C)C2` (stereo partly drawn) [US20250313563, Compound 927326], the figures for the pIC50 in assay [1] and in assay [2] were < 5.30 and 6.00 to 7.00, respectively.
In the case of `CC1(C)CC(=O)C2=C(C1)NC1=C(CN=N1)C21CCN(S(=O)(=O)c2ccccc2)CC1` [US20250313563, Compound 874530], the negative-log IC50 (pIC50) in assay [1] is > 7.00 and 5.30 to 6.00; in assay [2], > 7.00 and 6.00 to 7.00.
Turning to `COc1ccc(F)c(S(=O)(=O)N2CCC3(CC2)C2=C(N=NC2)NC2=C3C(=O)CC(C)(C)C2)c1` [US20250313563, Compound 945665], the pIC50 in assay [1] and in assay [2] was > 7.00 in each case.
`CC1(C)CC(=O)C2=C(C1)NC1=C(CN=N1)[C@@]21CO[C@H](c2ccccc2)C1` [US20250313563, Compound 946072]: the pIC50 is 6.00 to 7.00 in assay [1] and > 7.00 in assay [2].
Turning to `CC(C)n1ccc(S(=O)(=O)N2CCC3(CC2)C2=C(N=NC2)NC2=C3C(=O)CC(C)(C)C2)n1` [US20250313563, Compound 947258], the pIC50 in assay [1] and in assay [2] was > 7.00 each time.
For `CC[C@@]1(c2cccc(C(F)(F)F)c2)C2=CN=NC2NC2=C1C(=O)N(C)C[C@H]2C` (stereo partly drawn) [US20250313563, Compound 883982], the pIC50 in assay [1] and in assay [2] was < 5.30 each time.
Consider `CC[C@]1(c2cccc(C(F)(F)F)c2)C2=C(N=NC2)NC2=C1C(=O)N[C@H]2C` [US20250313563, Compound 945379], for which the pIC50 is 5.30 to 6.00 in assay [1] and 6.00 to 7.00 in assay [2].
As for `CCc1cccc(N(C)c2cccc(C3(CC)C4=CN=NC4NC4=C3C(=O)CC(C)(C)C4)c2)n1` (stereo not drawn) [US20250313563, Compound 944023], the pIC50 in assay [1] was 6.00 to 7.00; in assay [2], > 7.00.
For `CC[C@]1(c2cccc(-c3cnn(C(C)C)c3F)c2)C2=CN=NC2NC2=C1C(=O)NC(C)(C)C2` (stereo partly drawn) [US20250313563, Compound 949267], in that order: 5.30 to 6.00 and 6.00 to 7.00.
For `Cc1cc(S(=O)(=O)N2CCC3(CC2)C2=C(N=NC2)NC2=C3C(=O)CC(C)(C)C2)ccc1OC(C)C` [US20250313563, Compound 945678], in that order: 6.00 to 7.00 and > 7.00.
The like results for `CCC1(c2cccc(NC(C)=O)c2)C2=CN=NC2NC2=C1C(=O)CC(C)(C)C2` (stereo not drawn) [US20250313563, Compound 877310] were, in that order, 6.00 to 7.00 and > 7.00.
Turning to `CCc1ncc(S(=O)(=O)N2CCC3(CC2)C2=C(N=NC2)NC2=C3C(=O)CC(C)(C)C2)s1` [US20250313563, Compound 947252], the pIC50 in assay [1] and in assay [2] was > 7.00 each time.
In the case of `CC[C@]1(c2cccc(-c3ccnc4c3CCC4)c2)C2=C(CC(C)(C)NC2=O)NC2N=NC(C(F)(F)F)=C21` (stereo partly drawn) [US20250313563, Compound 948769], the negative logarithm of the IC50 (pIC50) in assay [1] and in assay [2] was 6.00 to 7.00 each time.
Regarding `CCC1(c2cccc(C3=CN=NC3)c2)C2=C(CC(C)(C)NC2=O)NC2N=NC(C(F)(F)F)=C21` (stereo not drawn) [US20250313563, Compound 947677], the pIC50 in assay [1] and in assay [2] was > 7.00 each time.
For the molecule `CC1(C)CC(=O)C2=C(C1)NC1=C(CN=N1)[C@]21CCN(S(=O)(=O)c2ccccc2F)C1` [US20250313563, Compound 945718], the pIC50 in assay [1] is > 7.00 and 6.00 to 7.00; in assay [2], > 7.00.
Take `CC1(C)CC(=O)C2=C(C1)NC1=C(CN=N1)[C@]21CCN(S(=O)(=O)c2cccc(F)c2)C1` [US20250313563, Compound 951861]: the pIC50 in assay [1] and in assay [2] was 6.00 to 7.00 each time.
For `CC[C@]1(c2cccc(-c3cn(C)nc3C)c2)C2=C(CC(C)(C)NC2=O)NC2N=NC(C(F)(F)F)=C21` (stereo partly drawn) [US20250313563, Compound 948309], the pIC50 was < 5.30 in assay [1] and 5.30 to 6.00 in assay [2].
For the molecule `CC[C@@]1(c2cccc(-c3ccnc(C)c3)c2)C2=CN=NC2NC2=C1C(=O)[C@@H](F)C(C)(C)C2` (stereo partly drawn) [US20250313563, Compound 945475], the pIC50 is 6.00 to 7.00 and < 5.30 in assay [1]; > 7.00 and 5.30 to 6.00 in assay [2].
Take `CC[C@@]1(c2cccc(-c3cnn(CCOC)c3)c2)C2=C(CC(C)(C)CC2=O)NC2N=NC(C)=C21` (stereo partly drawn) [US20250313563, Compound 913027]: the pIC50 in assay [1] and in assay [2] was > 7.00 each time.
With `CCc1cccc([C@@]2(CC)C3=CN=NC3NC3=C2C(=O)CC(C)(C)C3)c1` (stereo partly drawn) [US20250313563, Compound 949401], the pIC50 is > 7.00 and 5.30 to 6.00 in assay [1]; > 7.00 and 6.00 to 7.00 in assay [2].
`CC[C@]1(c2cccc(-c3ccncc3)c2)C2=CN=NC2NC2=C1C(=O)C[C@H](C)C2` (stereo partly drawn) [US20250313563, Compound 874318]: the results for the pIC50 in assay [1] and in assay [2] were 6.00 to 7.00 and > 7.00, respectively.
As to `CCC1(c2cccc(CN3CCCCC3)c2)C2=CN=NC2NC2=C1C(=O)CC(C)(C)C2` (stereo not drawn) [US20250313563, Compound 819560], the pIC50 was < 5.30 in assay [1] and 5.30 to 6.00 in assay [2].
For the molecule `O=C1C2=C(NC3N=NC=C3C23CCOCC3)C2CCC1C2` (stereo not drawn) [US20250313563, Compound 901464], the pIC50 in assay [1] and in assay [2] was 6.00 to 7.00 in each case.
As to `CC[C@]1(c2cccc(N3CCCCC3)c2)C2=C(CC(C)(C)CC2=O)NC2N=NC(C)=C21` (stereo partly drawn) [US20250313563, Compound 884115], the pIC50 in assay [1] and in assay [2] was 6.00 to 7.00 in each case.
`CCC1(c2cccc(-c3c(C)nnn3C)c2)C2=CN=NC2NC2=C1C(=O)CC(C)(C)C2` (stereo not drawn) [US20250313563, Compound 943996]: the pIC50 in assay [1] is > 7.00 and 6.00 to 7.00; in assay [2], > 7.00.
On to `CC1=C2C(N=N1)NC1=C(C(=O)CC(C)(C)C1)C21CCCCC1` (stereo not drawn) [US20250313563, Compound 883865], for which the pIC50 in assay [1] is 6.00 to 7.00; in assay [2] it was > 7.00.
For the molecule `CC[C@@]1(c2cccc(-c3cnc4n3CCCC4)c2)C2=CN=NC2NC2=C1C(=O)CC(C)(C)C2` (stereo partly drawn) [US20250313563, Compound 945607], the pIC50 in assay [1] is 6.00 to 7.00 and < 5.30; in assay [2], > 7.00 and 5.30 to 6.00.
For `Cc1nccc([C@H]2CC[C@@]3(CC2)C2=C(N=NC2)NC2=C3C(=O)CC(C)(C)C2)c1C` [US20250313563, Compound 950477], the pIC50 in assay [1] and in assay [2] was 6.00 to 7.00 each time.
For `CC[C@@]1(c2cccc(C(F)(F)F)c2)C2=CN=NC2NC2=C1C(=O)N(c1cccc(C)c1)CC2` (stereo partly drawn) [US20250313563, Compound 949041], the negative-log IC50 (pIC50) in assay [1] was < 5.30; in assay [2], 5.30 to 6.00.

The record behind these values is BindingDB's records for patent US20250313563 (The Broad Institute, 2025).
